# Reference: patent publication US11851389B2, “Cationic lipids for nucleic acid delivery and preparation thereof” (RAMOT AT TEL-AVIV UNIVERSITY LTD., priority 2016, dated 2023)
# How the values were obtained:
# [1] = system: Drug resistant human ovarian carcinoma cells (NAR); assay: PLK-1 expression by qPCR after LNP-siPLK-1 or LNP-siLuc; format: cell-based; settings: 72 hrs
# Protocol: (§1) The mRNA levels of pololike kinase 1 (PLK1 gene) in cells was quantified by real-time PCR, forty eight or Seventy-two hours post-transfection. Total RNA was isolated using the E-Z RNA purification kit (Biological industries, Beit Haemek, Israel), and 1 μg of RNA from each sample was reverse transcribed into cDNA using the High Capacity cDNA Reverse Transcription Kit (Applied Biosystems, Foster City, CA), Quantification of cDNA (5 ng total) was performed on the step one Sequence Detection System (Applied Biosystems, Foster City, CA) using syber green (Applied Biosystems). GAPDH was chosen as a housekeeping gene.
# (§2) Supt1 or NAR or OVCAR cells were placed in tissue culture 12-wells plates at a density of 1×10^5 cells with 1 mL of full medium. LNPs containing different siRNAs (siPLK1 or siCD45 or siLUC) were added to the wells and the concentration was mentioned in figures. Cells were isolated at different time intervals mentioned in the figures and analyzed by either flow cytometry (for siCD45 knockdown), or qPCR for analysis of PLK1 silencing. Apoptosis assay using PI/Annexin was analyzed by flow cytometry in case of siPLK1 induced cell death.
# Drug resistant human ovarian carcinoma cells (NAR) were treated with either LNP-siPLK-1 or LNP-siLuc nanoparticles Lipid 1 LNPs (A); Lipid 10&11 LNPs (B) for 72 hrs and PLK-1 expression was measured by qPCR as described in Example 1.
# [2] = system: HEK 293 cells; assay: In vitro expression of mKATE-pDNA, flow cytometry; format: cell-based; settings: 72 hr; for mKATE expression: HEK 293, 0.6 nM pDNA
# Protocol: In vitro expression of pDNA in HEK 293 cells: HEK cells were treated with LNPs composed of either lipid1 or lipid 10 encapsulated with mKATE-pDNA at the concentration of 0.6 nM pDNA. After 72 hr, mKATE expression was analyzed by flow cytometry.
# Dose dependent expression of pDNA in HEK 293 cells: HEK cells were treated with LNPs composed of either lipid1 or lipid 10 encapsulated with mKATE-pDNA at different amount pDNA. After 72 hr, mKATE expression was analyzed by flow cytometry.
# [3] = system: Human ovarian cancer cells (NAR cells); assay: Apoptosis by FACS using PI/Annexin after siPLK1-LNPs; format: cell-based; settings: 48 hr, PI/Annexin FACS
# Protocol: as §2
# Human ovarian cancer cells (NAR cells) were treated with lipid1/siPLK1 nanoparticles for 48 hr at different siRNA concentrations (0.2 μM and 0.1 μM). Apoptotic cells were analyzed by FACS using PI/Annexin. […] Percentage of early apoptotic cells was higher in cells treated with siPLK1-LNPs at 0.2 uM dose of siPLK1.
# Human ovarian cancer cells (NAR cells) were treated with either lipid10 or lipid 11/siPLK1 nanoparticles for 48 hr at different siRNA concentrations (0.1 μM and 0.05 μM). siLUC-LNPs used as a negative control. Apoptotic cells were analyzed by FACS using PI/Annexin.
# [4] = LNP size distribution, PDI and ζ potential by dynamic light scattering; format: physicochemical; settings: LNP-siRNA formulations; for PDI / Size (d · nm): DLS
# Protocol: LNPs were prepared by using microfluidic micro mixture (Precision NanoSystems, Vancouver, BC, Canada) as described by Cohen et. al. One volume of lipid mixtures (cationic lipid, DSPC, Chol, DMG-PEG and DSPE-PEG Mal at 50:10:38:1.5:0.5 mole ratio, […] total lipid concentration) in ethanol and three volumes of siRNA (1:16 w/w siRNA to lipid) containing acetate buffer solutions were injected through the micro mixer at a combined flow rate of 2 mL/minute (0.5 mL/min for ethanol and 1.5 mL/min for aqueous buffer). For labeled LNPs, 10% of Alexa-647 labeled siRNA were incorporated. For Cy5 labeled particles, 10% Cy5 labeled non-targeted siRNA was used. The resultant mixture was dialyzed against PBS (pH 7.4) for 16 h to remove ethanol.
# LNPs size distribution and ζ potential were determined by dynamic light scattering using a Malvern nano ZS ζ-sizer (Malvern instruments, UK). For size measurements, LNPs were diluted 1:20 in PBS. […] For ζ potential measurements, LNPs were diluted 1:200 in DDW. In some cases, as indicated, size and zeta potential measurements were performed in water.
# [5] = system: Human B-cell lymphoma suspension cells (RPMI-8226); assay: Cell viability after PLK1 silencing, XTT assay; format: cell-based; settings: RPMI-8226, 48 hrs
# Protocol: Human B-cell lymphoma suspension cells (RPMI-8226) were incubated with siPLK1-LNPs or siCtl-LNPs composed of either lipid 38 or 55 at different concentrations for 48 hrs. Cell viability affected by PLK1 down regulation was measured by XTT assay.
# [6] = system: Human colon carcinoma cells (HCT116); assay: Toxicity of LNPs with ctl siRNA, XTT cell viability; format: cell-based; settings: 72 hrs
# Protocol: Human colon carcinoma cells (HCT116) were incubated with LNPs with ctl siRNA (see methods) for 72 hrs. The cell viability was measured by XTT assay. Toxicity of LNPs composed of either lipid 38 or lipid 55 is compared with gold standard LNPs composed of Dlin-MC3-DMA.
# [7] = system: Human multiple myeloma suspension cells (U266); assay: PLK1 expression by qPCR after siPLK1-LNPs; format: cell-based; settings: U266, 48 hrs, normalized to LNPs-ctl siRNA treated cells
# Protocol: as §1
# Human multiple myeloma suspension cells (U266) were incubated with LNPs containing siPLK1 at different concentrations for 48 hrs. PLK1 expression was measured by qPCR. PLK1-mRNA levels were normalized to LNPs-ctl siRNA treated cells.
# [8] = system: Human multiple myeloma suspension cells (U266); assay: Cell viability after PLK1 silencing, XTT assay; format: cell-based; settings: U266, 48 hrs
# Protocol: Human multiple myeloma suspension cells (U266) were incubated with siPLK1-LNPs or siCtl-LNPs composed of either lipid 38 or 55 at different concentrations for 48 hrs. Cell viability affected by PLK1 down regulation was measured by XTT assay.
# [9] = system: Human multiple myeloma suspension cells (MM1); assay: Cell viability after PLK1 silencing, XTT assay; format: cell-based; settings: MM1, 48 hrs
# Protocol: Human multiple myeloma suspension cells (MM1) were incubated with siPLK1-LNPs or siCtl-LNPs composed of either lipid 38 or 55 at different concentrations for 48 hrs. Cell viability affected by PLK1 down regulation was measured by XTT assay.
SMILES,Zeta-potential (mV) [4] [mV],PDI [4],Size (d · nm) [4] [nm],further results
CCCCC/C=C\C/C=C\CCCCCCCCN(CCCCCCCC/C=C\C/C=C\CCCCC)NC(=O)CCCN(C)C [Lipid 10],18.5,0.08,50.5,"PLK-1 expression, LNP-siLuc control siRNA [1]: no effect on plk1 expression; PLK-1 expression, LNP-siPLK-1 [1]: down regulating plk1 gene efficiently at different doses; mKATE expression [2]: mKATE expression was observed; Dose dependence of mKATE expression ([2]; HEK 293, different amount pDNA): dose dependent expression of mKATE; Apoptosis induced by siPLK1-LNPs [3]: efficiently downregulating PLK1 gene followed by inducing apoptosis in NAR cells"
CCCCC/C=C\C/C=C\CCCCCCCCN(CCCCCCCC/C=C\C/C=C\CCCCC)NCCN(C)C [Lipid 15],10.1,0.11,52.5,
CCCCC/C=C\C/C=C\CCCCCCCCN(CCCCCCCC/C=C\C/C=C\CCCCC)OC(=O)CN(C)C [Lipid 9],−13.6,0.04,75.1,
CCCCC/C=C\C/C=C\CCCCCCCCN(CCCCCCCC/C=C\C/C=C\CCCCC)NC(=O)CCCN1CCN(C)CC1 [Lipid 21],−2.8,0.16,67.7,
CCCCC/C=C\C/C=C\CCCCCCCCNN(CCCCCCCC/C=C\C/C=C\CCCCC)CCCCN(C)C [Lipid 2],13.9,0.06,56.3,
"CCCCC/C=C\C/C=C\CCCCCCCCN(CCCCCCCC/C=C\C/C=C\CCCCC)NC(=O)[C@@H](N)CCCCN(C)C [Lipid 11, 2-amino-6-(dimethylamino)-N′,N′-di((9Z,12Z)-octadeca-9,12-dien-1-yl)hexanehydrazide]",20.4,0.10,108.5,"PLK-1 expression, LNP-siLuc control siRNA [1]: no effect on plk1 expression; PLK-1 expression, LNP-siPLK-1 [1]: down regulating plk1 gene efficiently at different doses; Apoptosis induced by siPLK1-LNPs [3]: efficiently downregulating PLK1 gene followed by inducing apoptosis in NAR cells"
CCCCC/C=C\C/C=C\CCCCCCCCN(CCCCCCCC/C=C\C/C=C\CCCCC)OC(=O)Cc1c[nH]cn1 [Lipid 33],−10.8,0.15,46.0,
"CCCCC/C=C\C/C=C\CCCCCCCCC(CCCCCCCC/C=C\C/C=C\CCCCC)OC(=O)CCCN(C)C [Dlin-MC3-DMA, reference compound]",−1,0.18,44.5,mKATE expression [2]: did not show any effect on mKATE expression
CCCCC/C=C\C/C=C\CCCCCCCCN(CCCCCCCC/C=C\C/C=C\CCCCC)OC(=O)CCCN(C)C [Lipid 14],−3.6,0.09,44.3,
CCCCC/C=C\C/C=C\CCCCCCCCN(CCCCCCCC/C=C\C/C=C\CCCCC)CCOC(=O)CCCN1CCN(C)CC1 [Lipid 55],−1.28,0.17,97.0,"Cell viability, siCtl-LNPs [5]: no effect on the cell viability; Cell viability, siPLK1-LNPs [5]: dose dependent effect on B-cell lymphoma cancer cell viability; Toxicity of LNPs (cell viability) [6]: less toxic than LNPs composed of Dlin-MC3-DMA; PLK1 expression, siPLK1-LNPs [7]: efficiently down regulate; Cell viability, siCtl-LNPs [8]: no effect on the cell viability; Cell viability, siPLK1-LNPs [8]: more effect on cell viability compared to Dlin-MC3-DMA LNPs; Cell viability, siCtl-LNPs [9]: no effect on the cell viability; Cell viability, siPLK1-LNPs [9]: dose dependent effect on multiple myeloma cancer cell viability"
